Source: patent US6534523B1, “Hepatitis C inhibitor tri-peptides” (Boehringer Ingelheim (Canada) Ltd., priority 1998, dated 2003)

These compounds were tested against HCV NS3 protease (UniProt P26663). Details: Table 7.
Chain of HCV NS3 protease (P26663 1027-1206, other chains not shown): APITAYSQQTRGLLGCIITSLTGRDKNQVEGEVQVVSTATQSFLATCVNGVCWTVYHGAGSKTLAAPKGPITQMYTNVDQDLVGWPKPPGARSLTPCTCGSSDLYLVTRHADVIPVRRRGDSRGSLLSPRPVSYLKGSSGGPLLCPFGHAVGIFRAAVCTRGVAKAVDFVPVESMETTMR
Assay type: biochemical, HCV genotype 1b
Parameters: rows headed: IC50 (μM); IC50 (μM)
Protocol: Recombinant HCV NS3 Protease/NS4A Cofactor Peptide Radiometric Assay
The enzyme was cloned, expressed and prepared according to the protocol described in Example 36. The enzyme was stored at −80° C., thawed on ice and diluted just prior to use in the assay buffer containing the NS4A cofactor peptide.
The substrate used for the NS3 protease/NS4A cofactor peptide radiometric assay, DDIVPC-SMSYTW, is cleaved between the cysteine and the serine residues by the enzyme. The sequence DDIVPC-SMSYTW corresponds to the NS5A/NS5B natural cleavage site in which the cysteine residue in P2 has been substituted for a proline. […] (molar ratio enzyme:cofactor 1:100) in the absence or presence of inhibitors. The separation of substrate from products is performed by adding avidin-coated agarose beads to the assay mixture followed by filtration. The amount of SMS[^125I-Y]TW product found in the filtrate allows for the calculation of the percentage of substrate conversion and of the percentage of inhibition.
The enzymatic reaction was initiated by the addition of the enzyme/NS4A peptide solution and the assay mixture was incubated for 40 min at 23° C. under gentle agitation. Ten (10) μL of 0.5N NaOH were added and 10 μL 1 M MES, pH 5.8 were added to quench the enzymatic reaction.
A non-linear curve fit with the Hill model was applied to the inhibition-concentration data, and the 50% effective concentration (IC50) was calculated by the use of SAS software (Statistical Software System; SAS Institute, Inc. Cary, N.C.). […]
The NS2-NS5B-3′ non coding region was cloned by RT-PCR into the pCR®3 vector (Invitrogen) using RNA extracted from the serum of an HCV genotype 1b infected individual (provided by Dr. Bernard Willems, Hôpital St-Luc, Montréal, Québec, Canada). The NS3-NS4A DNA region was then subcloned by PCR into the pFastBac™ HTa baculovirus expression vector (Gibco/BRL). The vector sequence includes a region encoding a 28-residue N-terminal sequence which contains a hexahistidine tag. The Bac-to-Bac™ baculovirus expression system (Gibco/BRL) was used to produce the recombinant baculovirus. The full length mature NS3 and NS4A heterodimer protein (His-NS3-NS4AFL) was expressed by infecting 10^6 Sf21 cells/mL with the recombinant baculovirus at a multiplicity of infection of 0.1-0.2 at 27° C. The infected culture was harvested 48 to 64 h later by centrifugation at 4° C. The cell pellet was homogenized in 50 mM NaPO4, pH 7.5, 40% glycerol (w/v), 2 mM β-mercaptoethanol, in presence of a cocktail of protease inhibitors. His-NS3-NS4AFL was then extracted from the cell lysate with 1.5% NP-40, 0.5% Triton X-100, 0.5M NaCl, and a DNase treatment. After ultracentrifugation, the soluble extract was diluted 4-fold and bound on a Pharmacia Hi-Trap Ni-chelating column. […] The His-NS3-NS4AFL was stored at −80° C. in 50 mM sodium phosphate, pH 7.5, 10% (w/v) glycerol, 0.5 M NaCl, 0.25 M imidazole, 0.1% NP-40. It was thawed on ice and diluted just prior to use. The protease activity of His-NS3-NS4AFL was assayed in 50 mM Tris-HCl, pH 8.0, 0.25 M sodium citrate, 0.01% (w/v) n-dodecyl-β-D-maltoside, 1 mM TCEP. Five (5) μM of the internally quenched substrate anthranilyl-DDIVPAbu[C(O)—O]-AMY(3-NO2)TW-OH in presence of various concentrations of inhibitor were incubated with 1.5 nM of His-NS3-NS4AFL for 45 min at 23° C. […] The reaction was terminated with the addition of 1M MES, pH 5.8. Fluorescence of the N-terminal product was monitored on a Perkin-Elmer LS-50B fluorometer equipped with a 96-well plate reader (excitation wavelength: 325 nm; emission wavelength: 423 nm).
The following tables list compounds representative of the invention.
In the case of `C=CC1CC1(NC(=O)C1CC(Oc2cc(-c3csc(NC(C)=O)n3)nc3cc(OC)ccc23)CN1C(=O)C(NC(=O)OC(C)(C)C)C(C)(C)C)C(=O)O` (stereo not shown) [compound 719], the IC50 is reported as 18 nM. `C=CC1CC1(NC(=O)C1CC(Oc2cc(-c3cnn(C(C)(C)C)c3)nc3cc(OC)ccc23)CN1C(=O)C(NC(=O)OC(C)(C)C)C(C)(C)C)C(=O)O` (stereo not shown) [compound 720] gave an IC50 of 30 nM. In the case of `C=CC1CC1(NC(=O)C1CC(Oc2cc(N3CCC(OC)CC3)nc3cc(OC)ccc23)CN1C(=O)C(NC(=O)OC(C)(C)C)C(C)(C)C)C(=O)O` (stereo not shown) [compound 721], the IC50 is reported as 45 nM. In the case of `C=CC1CC1(NC(=O)C1CC(Oc2cc(-c3csc(NCC)n3)nc3cc(OC)ccc23)CN1C(=O)C(NC(=O)OC(C)(C)C)C(C)(C)C)C(=O)O` (stereo not shown) [compound 722], the IC50 is reported as 48 nM. `C=CC1CC1(NC(=O)C1CC(Oc2cc(-c3csc(NC(C)C)n3)nc3cc(OC)ccc23)CN1C(=O)C(NC(=O)OC(C)(C)C)C(C)(C)C)C(=O)O` (stereo not shown) [compound 723] showed an IC50 of 47 nM. For `C=CC1CC1(NC(=O)C1CC(Oc2cc(N3CCC(C)CC3)nc3cc(OC)ccc23)CN1C(=O)C(NC(=O)OC(C)(C)C)C(C)(C)C)C(=O)O` (stereo not shown) [compound 724], the IC50 was 75 nM. Compound `C=CC1CC1(NC(=O)C1CC(Oc2cc(-c3ccncn3)nc3cc(OC)ccc23)CN1C(=O)C(NC(=O)OC(C)(C)C)C(C)(C)C)C(=O)O` (stereo not shown) [compound 725] has an IC50 of 46 nM. `C=CC1C[C@]1(NC(=O)[C@@H]1C[C@@H](Oc2cc(C(C)C)nc3cc(OC)ccc23)CN1C(=O)[C@@H](NC(=O)OC(C)(C)C)C(C)(C)C)C(=O)O` (stereo partly shown) [compound 726] was tested, and the IC50 was 250 nM. `C=CC1CC1(NC(=O)C1CC(Oc2cc(-c3cccnc3)nc3cc(OC)ccc23)CN1C(=O)C(NC(=O)OC(C)(C)C)C(C)(C)C)C(=O)O` (stereo not shown) [compound 727] showed an IC50 of 70 nM. `C=CC1CC1(NC(=O)C1CC(Oc2cc(-c3csc(CS(C)(=O)=O)n3)nc3cc(OC)ccc23)CN1C(=O)C(NC(=O)OC(C)(C)C)C(C)(C)C)C(=O)O` (stereo not shown) [compound 728] was tested, and the IC50 was 22 nM. With `C=CC1CC1(NC(=O)C1CC(Oc2cc(-c3cnccn3)nc3cc(OC)ccc23)CN1C(=O)C(NC(=O)OC(C)(C)C)C(C)(C)C)C(=O)O` (stereo not shown) [compound 729] the IC50 was 200 nM. `C=CC1CC1(NC(=O)C1CC(Oc2cc(OC(C)C)nc3cc(OC)ccc23)CN1C(=O)C(NC(=O)OC(C)(C)C)C(C)(C)C)C(=O)O` (stereo not shown) [compound 730] showed an IC50 of 42 nM. In the case of `C=CC1CC1(NC(=O)C1CC(Oc2cc(OCCC)nc3cc(OC)ccc23)CN1C(=O)C(NC(=O)OC(C)(C)C)C(C)(C)C)C(=O)O` (stereo not shown) [compound 731], the IC50 is reported as 31 nM. `C=CC1CC1(NC(=O)C1CC(Oc2cc(-c3csc(-c4csc(C)n4)n3)nc3cc(OC)ccc23)CN1C(=O)C(NC(=O)OC(C)(C)C)C(C)(C)C)C(=O)O` (stereo not shown) [compound 732] was tested, and the IC50 was 20 nM. `C=CC1CC1(NC(=O)C1CC(Oc2cc(-c3csc(NC(C)(C)C)n3)nc3cc(OC)ccc23)CN1C(=O)C(NC(=O)OC(C)(C)C)C(C)(C)C)C(=O)O` (stereo not shown) [compound 733] gave an IC50 of 28 nM. Compound `C=CC1CC1(NC(=O)C1CC(Oc2cc(SCC)nc3cc(OC)ccc23)CN1C(=O)C(NC(=O)OC(C)(C)C)C(C)(C)C)C(=O)O` (stereo not shown) [compound 734] has an IC50 of 44 nM. `C=CC1CC1(NC(=O)C1CC(Oc2cc(OCC(C)C)nc3cc(OC)ccc23)CN1C(=O)C(NC(=O)OC(C)(C)C)C(C)(C)C)C(=O)O` (stereo not shown) [compound 735] gave an IC50 of 58 nM. With `C=CC1C[C@]1(NC(=O)[C@@H]1C[C@@H](Oc2cc(C(C)(C)C)nc3cc(OC)ccc23)CN1C(=O)[C@@H](NC(=O)OC(C)(C)C)C(C)(C)C)C(=O)O` (stereo partly shown) [compound 736] the IC50 was 250 nM. `C=CC1CC1(NC(=O)C1CC(Oc2cc(C3CCCCC3)nc3cc(OC)ccc23)CN1C(=O)C(NC(=O)OC(C)(C)C)C(C)(C)C)C(=O)O` (stereo not shown) [compound 737] was tested, and the IC50 was 110 nM.

Same assay, conditions: Table 8
`C=CC1CC1(NC(=O)C1CC(Oc2cc(-c3ccccc3)nc3cc(OC)ccc23)CN1C(=O)C(NC(=O)C(O)C1CCCCC1)C(C)(C)C)C(=O)O` (stereo not shown) [compound 802] was tested, and the IC50 was 24 nM. For `C=CC1CC1(NC(=O)C1CC(Oc2cc(-c3ccccc3)nc3cc(OC)ccc23)CN1C(=O)C(NC(=O)CC1CCCCC1)C(C)(C)C)C(=O)O` (stereo not shown) [compound 804], the IC50 was 32 nM. With `C=CC1CC1(NC(=O)C1CC(Oc2cc(-c3ccccc3)nc3cc(OC)ccc23)CN1C(=O)C(NC(C)=O)C(C)(C)C)C(=O)O` (stereo not shown) [compound 805] the IC50 was 83 nM. With `C=CC1CC1(NC(=O)C1CC(Oc2cc(-c3ccccc3)nc3cc(OC)ccc23)CN1C(=O)C(NC(=O)C(C)C1CCCCC1)C(C)(C)C)C(=O)O` (stereo not shown) [compound 806] the IC50 was 36 nM. With `C=CC1CC1(NC(=O)C1CC(Oc2cc(-c3ccccc3)nc3cc(OC)ccc23)CN1C(=O)C(NC(=O)NC(C)C)C(C)(C)C)C(=O)O` (stereo not shown) [compound 807] the IC50 was 10 nM. For `C=CC1CC1(NC(=O)C1CC(Oc2cc(-c3ccccc3)nc3cc(OC)ccc23)CN1C(=O)C(NC(=O)NC1CCCCC1)C(C)(C)C)C(=O)O` (stereo not shown) [compound 808], the IC50 was 8 nM. With `C=CC1CC1(NC(=O)C1CC(Oc2cc(-c3ccccc3)nc3cc(OC)ccc23)CN1C(=O)C(Nc1ccccc1)C(C)C)C(=O)O` (stereo not shown) [compound 809] the IC50 was 71 nM. `C=CC1CC1(NC(=O)C1CC(Oc2cc(-c3ccccc3)nc3cc(OC)ccc23)CN1C(=O)C(NC(=O)COc1c(C)cccc1C)C(C)(C)C)C(=O)O` (stereo not shown) [compound 810] was tested, and the IC50 was 450 nM. Work on `C=CC1CC1(NC(=O)C1CC(Oc2cc(-c3ccc(Cl)cc3)nc3cc(OC)ccc23)CN1C(=O)C(NC(=O)OC(C)(C)C)C(C)(C)C)C(=O)O` (stereo not shown) [compound 811] yielded an IC50 of 40 nM. Compound `C=CC1CC1(NC(=O)C1CC(Oc2cc(-c3ccccc3)nc3cc(OC)ccc23)CN1C(=O)C(NC(=O)Nc1ccccc1)C(C)(C)C)C(=O)O` (stereo not shown) [compound 812] has an IC50 of 13 nM. With `C=CC1CC1(NC(=O)C1CC(Oc2cc(-c3ccccc3)nc3cc(OC)ccc23)CN1C(=O)C(NC(=S)NC(C)(C)C)C(C)(C)C)C(=O)O` (stereo not shown) [compound 813] the IC50 was 20 nM. For `C=CC1CC1(NC(=O)C1CC(Oc2cc(-c3ccccc3Cl)nc3cc(OC)ccc23)CN1C(=O)C(NC(=O)OC(C)(C)C)C(C)(C)C)C(=O)O` (stereo not shown) [compound 814], the IC50 was 130 nM. Work on `C=CC1CC1(NC(=O)C1CC(Oc2cc(-c3cccc(Cl)c3)nc3cc(OC)ccc23)CN1C(=O)C(NC(=O)OC(C)(C)C)C(C)(C)C)C(=O)O` (stereo not shown) [compound 815] yielded an IC50 of 160 nM. `C=CC1CC1(NC(=O)C1CC(Oc2cc(-c3ccccc3)nc3cc(OC)ccc23)CN1C(=O)C(NC(=O)NCC)C(C)(C)C)C(=O)O` (stereo not shown) [compound 816] gave an IC50 of 32 nM. Compound `C=CC1CC1(NC(=O)C1CC(Oc2cc(-c3ccccc3)nc3cc(OC)ccc23)CN1C(=O)C(NC(=O)NCc1ccccc1)C(C)(C)C)C(=O)O` (stereo not shown) [compound 817] has an IC50 of 17 nM. With `C=CC1CC1(NC(=O)C1CC(Oc2cc(-c3ccccc3)nc3cc(OC)ccc23)CN1C(=O)C(NC(=S)NC1CCCCC1)C(C)(C)C)C(=O)O` (stereo not shown) [compound 818] the IC50 was 19 nM. Compound `C=CC1CC1(NC(=O)C1CC(Oc2cc(-c3ccccc3)nc3cc(OC)ccc23)CN1C(=O)C(Nc1ccc([N+](=O)[O-])c(C(F)(F)F)c1)C(C)C)C(=O)O` (stereo not shown) [compound 819] has an IC50 of 320 nM. `C=CC1CC1(NC(=O)C1CC(Oc2cc(-c3ccccc3)nc3cc(OC)ccc23)CN1C(=O)C(Nc1ccc(N)c(C(F)(F)F)c1)C(C)C)C(=O)O` (stereo not shown) [compound 820] gave an IC50 of 63 nM. `C=CC1CC1(NC(=O)C1CC(Oc2cc(-c3ccccc3)nc3cc(OC)ccc23)CN1C(=O)C(Nc1cccc(OC)c1)C(C)C)C(=O)O` (stereo not shown) [compound 821] was tested, and the IC50 was 120 nM. Work on `C=CC1CC1(NC(=O)C1CC(Oc2cc(-c3ccccc3)nc3cc(OC)ccc23)CN1C(=O)C(Nc1ccc(C)cc1)C(C)C)C(=O)O` (stereo not shown) [compound 822] yielded an IC50 of 50 nM. In the case of `C=CC1CC1(NC(=O)C1CC(Oc2cc(-c3ccccc3OC)nc3cc(OC)ccc23)CN1C(=O)C(NC(=O)OC(C)(C)C)C(C)(C)C)C(=O)O` (stereo not shown) [compound 823], the IC50 is reported as 107 nM.
